In US9248162B2, “Factor H for treatment of rheumatoid arthritis” (Baxter International Inc., priority 2013, dated 2016):
“And” between values parts separate entries of the source, which are not always exact repeats. Equal entries are not always repeated. Marks after values point to notes of the source that are not given here.

Tests used:
Type in all cases: in vivo, Balb C mice
[1] = test system: collagen antibody-induced arthritis; assay: Mouse CAIA: hind paw / footpad volume (swelling, disease burden); parameters: Mean Disease Burden / Total Disease Burden (AUC) / Hind Limb Volume, Mean Diff. / Total Disease, Mean Diff.: unit not given here; conditions: for % Disease Suppression / Total Disease Burden (AUC): days 8-22
Procedure: (§1) Balb C mice (n=10 per cohort) were used to determine the efficacy of Factor H (FH) during […]. The mice were treated with ArthritoMAb (anti-collagen) antibody cocktail (2 mg, i.v.) on day 1, followed 7 days later with an injection of LPS (50 μg, i.p.). On day 8, hind paw volumes were measured for each animal and distributed to various treatment groups.
Factor H was formulated in 20 mM Citrate, 150 mM NaCl, pH=6. […] Ethanercept was formulated as Enbrel™ in saline. Vehicle was formulated in 20 mM Citrate, 150 mM NaCl, pH=6. […] The dosing volume for Factor H and BX12 was 25 mL/kg (0.500 mL/20 g mouse) and adjusted accordingly for body weight.
(§2) Dosing with the different agents was started on day 8 as described in Table 3.
(§3) The age at start date was 7 to 9 weeks. Body weights were measured bi-weekly to the endpoint (Table 4). At the endpoint, tissue samples were processed for histology and submitted to a pathologist for independent analysis. Sampling 1 was performed at the endpoint. The hind limbs were preserved in 10% formalin. Sampling 2 was performed at the endpoint for group 4 animals. Blood was collected by terminal cardiac puncture. The blood was processed for anti-coagulant. The kidneys were additionally preserved in formalin and followed with 70% EtOH. Samples were scored for inflammation, pannus (granulation tissue), cartilage damage, bone resorption and exostosis (Table 5).

[2] = test system: collagen antibody-induced arthritis; assay: Mouse CAIA: ankle histology scores (H & E); parameters: key to Score From H & E: Inflammation: 0: normal; 1: minimal infiltration of inflammatory cells in periarticular tissue; 2: mild infiltration; 3: moderate infiltration with moderate edema; 4: marked infiltration with marked edema; 5: severe infiltration with severe edema; key to Exostosis, Summary (significance) / Composite, Summary (significance) / Pannus, Summary (significance) / Cartilage, Summary (significance) / Inflammation, Summary (significance): ns: = not significant; *: = P < 0.05; **: = P < 0.01; ***: = P < 0.001; Composite Biohistopathology Score, group value / Composite Biohistopathology Score: scale not given here
Procedure: as §1, §2
as §3, with “Hind paw volumes were measured on day 8, 11, 12, 13, 15, 19 and 22 (endpoint). The age” for “The age”

[3] = Mouse CAIA: body weight and tolerability; conditions: mouse, in vivo
Procedure: as §1, §2
as §3, with “Hind paw volumes were measured on day 8, 11, 12, 13, 15, 19 and 22 (endpoint). The age” for “The age”

[4] = test system: collagen antibody-induced arthritis; assay: Mouse CAIA: ankle histology scores (H & E); parameters: key: 0: normal; 1: minimal; 2: mild; 3: moderate; 4: marked; 5: severe; conditions: individual animal, score 0-5, endpoint day 22, listed as Group 3
Procedure: as §1, §2
as §3, with “Hind paw volumes were measured on day 8, 11, 12, 13, 15, 19 and 22 (endpoint). The age” for “The age”

[5] = test system: collagen antibody-induced arthritis; assay: Mouse CAIA: ankle histology scores (H & E); parameters: key: 0: normal; 1: minimal infiltration of pannus in cartilage and subchondral bone; 2: mild infiltration; 3: moderate infiltration; 4: marked infiltration; 5: severe infiltration; conditions: individual animal, score 0-5, endpoint day 22, listed as Group 3
Procedure: as §1, §2
as §3, with “Hind paw volumes were measured on day 8, 11, 12, 13, 15, 19 and 22 (endpoint). The age” for “The age”

[6] = test system: collagen antibody-induced arthritis; assay: Mouse CAIA: ankle histology scores (H & E); parameters: key: 0: normal; 1: minimal to mild loss of staining density with no obvious chondrocyte loss or collagen disruption; 2: mild loss of staining density with focal mild (superficial) chondrocyte loss and/or collagen disruption; 3: moderate loss of staining density with multifocal moderate (depth to middle zone) chondrocyte loss and/or collagen disruption; 4: marked loss of staining density with multifocal marked (depth to deep zone) chondrocyte loss and/or collagen disruption; 5: severe diffuse loss of staining density with multifocal severe (depth to tide mark) chondrocyte loss and/or collagen disruption; conditions: individual animal, score 0-5, endpoint day 22, listed as Group 3
Procedure: as §1, §2
as §3, with “Hind paw volumes were measured on day 8, 11, 12, 13, 15, 19 and 22 (endpoint). The age” for “The age”

[7] = Vehicle vs agent, Dunnett's Multiple Comparison Test
[8] = Vehicle vs agent, Dunn's Multiple Comparison Test
[9] = ankle, group mean ± spread, 10 animals, score 0-5
[10] = histopathology score, graded 1-5, hind limbs at endpoint, group value

Etanercept
Hind Limb Volume, Mean Diff. [1, 7]: 0.08143
Hind Limb Volume, Summary (significance) [1, 7]: ** (= P < 0.01)
Total Disease, Mean Diff. [1, 7]: 1.19
Total Disease, Summary (significance) [1, 7]: ** (= P < 0.01)
Hind paw volume ([1]; day 8 of study, group mean, n 10): 0.35 mL
Hind paw volume ([1]; day 8 of study, individual animal): 0.41 mL and 0.4 mL and 0.38 mL and 0.37 mL and 0.35 mL and 0.34 mL and 0.32 mL and 0.31 mL and 0.3 mL (2×)
Hind paw volume ([1]; day 11 of study, group mean, n 10): 0.44 mL
Hind paw volume ([1]; day 11 of study, individual animal): 0.49 mL and 0.44 mL (2×) and 0.37 mL and 0.38 mL and 0.59 mL and 0.4 mL (2×) and 0.45 mL and 0.41 mL
Hind paw volume ([1]; day 12 of study, group mean, n 10): 0.44 mL
Hind paw volume ([1]; day 12 of study, individual animal): 0.58 mL and 0.44 mL and 0.35 mL and 0.42 mL and 0.46 mL and 0.49 mL and 0.45 mL and 0.39 mL (2×) and 0.4 mL
Hind paw volume ([1]; day 13 of study, group mean, n 10): 0.42 mL
Hind paw volume ([1]; day 13 of study, individual animal): 0.58 mL and 0.41 mL (2×) and 0.36 mL and 0.33 mL and 0.49 mL and 0.39 mL and 0.35 mL and 0.43 mL and 0.4 mL
Hind paw volume ([1]; day 16 of study, group mean, n 10): 0.38 mL
Hind paw volume ([1]; day 16 of study, individual animal): 0.45 mL and 0.46 mL and 0.34 mL and 0.37 mL and 0.43 mL and 0.41 mL and 0.33 mL (2×) and 0.32 mL and 0.3 mL
Hind paw volume ([1]; day 19 of study, group mean, n 10): 0.42 mL
Hind paw volume ([1]; day 19 of study, individual animal): 0.61 mL and 0.43 mL and 0.4 mL and 0.47 mL (2×) and 0.32 mL and 0.42 mL and 0.35 mL and 0.33 mL and 0.36 mL
Hind paw volume ([1]; day 22 of study, group mean, n 10): 0.38 mL
Hind paw volume ([1]; day 22 of study, individual animal): 0.55 mL and 0.41 mL (2×) and 0.34 mL (2×) and 0.39 mL and 0.36 mL (3×) and 0.32 mL
% Disease Suppression ([1]; group mean, n 10): 61.66%
Total Disease Burden (AUC) ([1]; group mean, n 10): 0.74
% Disease Suppression ([1]; individual animal): 16.3% and 74.3% and 109.8% and 81.9% and 52.3% and 49.7% and 69.4% and 70.2% and 29.0% and 63.7%
Total Disease Burden (AUC) ([1]; individual animal): 1.62 and 0.58 (2×) and −0.19 and 0.35 and 0.92 and 0.97 and 0.59 and 1.37 and 0.70
Maximum Δ Mean Volume ([1]; difference between mean combined foot pad volumes on day 8 and on median day of maximal swelling, vehicle 0.21): 0.13** ml
Mean Disease Burden ([1]; group mean AUC of combined footpad volume over baseline, days 8 to 22, vehicle 1.93): 0.74**
% Disease Suppression (vs Vehicle) ([1]; percent decrease in total disease burden relative to vehicle): 61.7%
Cartilage, Difference in rank sum [2, 8]: −1.5
Cartilage, Summary (significance) [2, 8]: ns
Composite, Difference in rank sum [2, 8]: 2.1
Composite, Summary (significance) [2, 8]: ns
Exostosis, Difference in rank sum [2, 8]: 5.8
Exostosis, Summary (significance) [2, 8]: ns
Inflammation, Difference in rank sum [2, 8]: 3.6
Inflammation, Summary (significance) [2, 8]: ns
Pannus, Difference in rank sum [2, 8]: 0.3
Pannus, Summary (significance) [2, 8]: ns
Composite Biohistopathology Score, group value ([2]; ankle, group mean ± spread, 10 animals): 6.0 ± 2.1
Score From H & E: Bone Resorption, group value [2, 9]: 1.0 ± 0.4
Score From H & E: Cartilage Damage, group value [2, 9]: 0.7 ± 0.3
Score From H & E: Inflammation, group value [2, 9]: 1.5 ± 0.5
Score From H & E: Pannus, group value [2, 9]: 1.4 ± 0.5
Score From H & E: Periosteal/Exostotic Changes, group value [2, 9]: 1.4 ± 0.6
Composite Biohistopathology Score ([2]; ankle, individual animal, endpoint day 22, listed as Group 3): 11 (2×) and 0 (4×) and 16 and 15 and 1 and 4
Score From H & E: Inflammation ([2]; ankle, individual animal, score 0-5, endpoint day 22, listed as Group 3): 3 (4×) and 0 (4×) and 1 and 2
Composite Score ([2]; histopathology composite, hind limbs at endpoint, group value): 6.0 ± 2.1^ns
Bone Resorption [2, 10]: 1.0 ± 0.4^ns
Cartilage Damage [2, 10]: 0.7 ± 0.3^ns
Exostosis [2, 10]: 1.4 ± 0.6^ns
Inflammation [2, 10]: 1.5 ± 0.5^ns
Pannus [2, 10]: 1.4 ± 0.5^ns
Mean Body Weigh at Nadir [3]: −5.7%
Score From H & E: Bone Resorption [4]: 1 and 3 (3×)
Score From H & E: Periosteal/Exostotic Changes [4]: 4 (2×) and 3 (2×)
Score From H & E: Pannus [5]: 4
Score From H & E: Cartilage Damage [6]: 1 (3×) and 2 (2×)
